Test results reported in US6984639B2, “Heterocyclic ketone and thioester compounds and uses” (GPI NIL Holdings, Inc., priority 1996, dated 2006).
Read-outs that look alike come from different tables or passages of the source.

Experiments:
[1] = test system: cultured chick sensory neurons from dorsal root ganglia; test: Chick Dorsal Root Ganglion Cultures and Neurite Outgrowth; assay type: cell-based; settings: for EC50: neurite outgrowth, 48 hours after drug treatment, from dose-response curves, read-out: ED50 (the source's name)
Experimental: Dorsal root ganglia were dissected from chick embryos of ten day gestation. Whole ganglion explants were cultured on thin layer Matrigel-coated 12 well plates with Liebovitz L15 plus high glucose media supplemented with 2 mM glutamine and 10% fetal calf serum, and also containing 10 μm cytosine β-D arabinofuranoside (Ara C) at 37° C. in an environment containing 5% CO2. Twenty-four hours later, the DRGs were treated with various concentrations of nerve growth factor, immunophilin ligands or combinations of NFG plus drugs. Forty-eight hours after drug treatment, the ganglia were visualized under phase contrast or Hoffman Modulation contrast with a Zeiss Axiovert inverted microscope. Photomicrographs of the explants were made, and neurite outgrowth was quantitated. Neurites longer than the ORG diameter were counted as positive, with total number of neurites quantitated per each experimental condition. Three to four DRGs are cultured per well, and each treatment was performed in duplicate.
Dose-response curves were generated from which ED50 values were obtained.

[2] = test system: MPTP lesioning of dopaminergic neurons in mice; test: MPTP Model of Parkinson's Disease; assay type: in vivo; settings: test compound 4 mg/kg s.c.; MPTP 30 mg/kg i.p. for 5 days; CD1 mice; striatum, 18 days following MPTP
Experimental: MPTP lesioning of dopaminergic neurons in mice was used as an animal model of Parkinson's Disease. Four week old male CD1 white mice were dosed i.p. with 30 mg/kg of MPTP for 5 days. Test compounds (4 mg/kg), or vehicle, were administered s.c. along with the MPTP for 5 days, as well as for an additional 5 days following cessation of MPTP treatment. At 18 days following MPTP treatment, the animals were sacrificed and the striata were dissected and homogenized. Immunostaining was performed on saggital and coronal brain sections using anti-tyrosine hydroxylase […] to quantitate survival and recovery of dopaminergic neurons.
The results of these experiments are presented in TABLE IV under the column “% TH recovery”.

Row | Molecule | EC50 [1] | % TH recovery [2] | also measured
1 | 4-Phenyl-1-butyl (2S)-1-(3,3-dimethyl-1,2-dioxopentyl)-2-pyrrolidinecarbothioate [Compound 30] | 900 pM | 48% | –
2 | 2-Phenyl-1-ethyl (2S)-1-(2-cyclohexyl-1,2-dioxoethyl)-2-pyrrolidinecarbothioate [Compound 12] | 25 pM | – | –
3 | 2-Phenyl-1-ethyl (2S)-1-(3,3-dimethyl-1,2-dioxopentyl)-2-pyrrolidinecarbothioate [Compound 9] | 500 pM | 61% | –
4 | O=C(C(=O)N1CCC[C@H]1C(=O)CCCCc1ccccc1)C1CCCCC1 [Compound 62, (2S)-2-(1-Oxo-5-phenyl)pentyl-1-(2-Cyclohexyl-1,2-dioxoethyl)pyrrolidine] | – | 38% | EC50 ([1]; Gallus gallus, Neuron): 5000 pM
5 | CCC(C)(C)C(=O)C(=O)N1CCCC1C(=O)SCc1csc2ccccc12 (stereo not shown) [Compound 11] | 360 pM | 53% | –
6 | 2,2-Diphenylethyl (2S)-1-(3,3-dimethyl-2-oxopentanoyl)-2-pyrrolidinecarbothioate [Compound 44] | – | 28% | –
7 | CCC(C)(C)C(=O)C(=O)N1CCC[C@H]1C(=O)CCCCc1ccccc1 [Compound 1, (2S)-3,3-dimethyl-1-[2-(5-phenylpentanoyl)pyrrolidinyl]pentane-1,2-dione] | 400 pM | 23% | neurite outgrowth in sensory neurons (photomicrograph) ([1]; 10 pM): promoting neurite outgrowth; neurite outgrowth in sensory neurons (photomicrograph) ([1]; 1 nM): promoting neurite outgrowth; neurite outgrowth in sensory neurons (photomicrograph) ([1]; 1 μM): promoting neurite outgrowth
8 | 2-Phenyl-1-ethyl 1-(2-phenyl-1,2-dioxoethyl)-2-piperidinecarbothioate [Compound 14] | 900 pM | 48% | –
9 | 3-(1-Naphthyl)-1-propyl (2S)-1-(3,3-dimethyl-2-oxopentanoyl)-2-pyrrolidinecarbothioate [Compound 43] | – | 50% | –
10 | 3-Phenyl-1-propyl (2S)-1-(2-cyclohexyl-1,2-dioxoethyl)-2-pyrrolidinecarbothioate [Compound 28] | – | 52% | –
11 | 3,3-Diphenyl-1-propyl (2S)-1-(3,3-dimethyl-1,2-dioxopentyl)-2-pyrrolidinecarbothioate [Compound 32] | – | 56% | –
12 | 3-(para-Methoxyphenyl)-1-propyl (2S)-1-(3,3-dimethyl-1,2-dioxopentyl)-2-pyrrolidinecarbothioate [Compound 34] | 11 pM | 37.32% | –
13 | 3-(1-Naphthyl)-1-propyl 1-(3,3-dimethyl-1,2-dioxopentyl)piperidine-2-carbothioate [Compound 40] | – | 25% | –
14 | CCC(C)(C)C(=O)C(=O)N1CCC[C@H]1C(=O)CCCC(c1ccc(F)cc1)c1ccc(F)cc1 [Compound 66, (2S)-2-[5,5-di(4-Fluorophenyl)pentanoyl]-1-(3,3 dimethyl-1,2-pentanedione)pyrrolidine] | – | 25% | –
15 | 3,3-Diphenylpropyl 1-(3,3-dimethyl-2-oxopentanoyl)-2-piperidinecarbothioate [Compound 46] | – | 62% | –
16 | CC(C)(C)C(=O)C(=O)N1CCCCC1C(=O)C(CCc1ccccc1)CCc1ccccc1 (stereo not shown) [Compound 65] | – | 23% | –
17 | 2-Phenyl-1-ethyl 1-(3,3-dimethyl-1,2-dioxopentyl)-2-piperidinecarbothioate [Compound 10] | 800 pM | 54% | neurite outgrowth in sensory neurons (photomicrograph) ([1]; 10 pM): promoting neurite outgrowth; neurite outgrowth in sensory neurons (photomicrograph) ([1]; 1 nM): promoting neurite outgrowth; neurite outgrowth in sensory neurons (photomicrograph) ([1]; 100 nM): promoting neurite outgrowth
